{
  "source": "patent US20130035257A1",
  "about": "“MICROFLUIDIC ARRAYS AND METHODS FOR THEIR PREPARATION AND USE” (UNIVERSITY OF BRITISH COLUMBIA, priority 2011, published 2013)",
  "key": {"[1]": {"test_system": "human MCF-7 breast tumor cells", "conditions": "MCF-7 cells in alginate-poly-L-lysine-alginate microcapsules, MTT assay; cited from earlier work"}, "[2]": {"test_system": "LCC6/Her2 breast tumor cells", "assay": "in vitro", "format": "cell-based", "protocol": "(§1) Doxorubicin (Dox) is an anthracycline molecule that intercalates in DNA and inhibits topoisomerase II. As an anticancer agent, the drug inhibits RNA and DNA synthesis. During on-chip drug testing, the Dox solution was prepared with 0.2% dimethylsulfoxide (DMSO) and DMEM culture medium. After visual confirmation of spheroid formation at four days, the drug-free culture media was replaced with 400, 800, 1200, and 1600 nM Dox solutions. The drug solution was continuously perfused through the device at a rate of 0.25 μl min^−1 for two days. DMSO controls, in which the corresponding amount of DMSO in culture medium with no drug, were also carried out. Toxicity was examined after 48 h of drug dosing by quantifying cell viability.\n(§2) Cell viability was indicated with live/dead calcein AM/ethidium homodimer-1 stains (Invitrogen), which were applied through pressure-driven flow control to the cells while they were entrapped in alginate in the microdevice. […]\n(§3) All stained samples were imaged using fluorescence microscopy. […] The number of living cells NG was calculated by counting the number of pixels in the green (living cells) channel in the confocal images and normalizing for the size of one cell. The number of dead cells NR was similarly calculated using the red pixels. […]\n(§4) The survival rate was calculated as NG/(NG+NR). The proliferation rate is calculated as (N4−N1)/N1 before drug treatment, and as (N6−N4)/N4 after drug treatment, where Nx is the number of cells on the xth day.\n(§5) Images from confocal microscopy were used to determine cell survival rate and proliferation inside the three dimensional multicellular aggregates after exposure to different doxorubicin concentrations. […] Doxorubicin was the perfused with (a) 0, (b) 400, (c) 800, (d) 1200, and (e) 1600 nM doxorubicin for two days, and cell viability was measured at the end of that period after staining with a live/dead viability kit and confocal imaging. […] The number of living cells NG was calculated by counting the number of pixels (living cells) channel in the confocal image and normalizing for the size of one cell. […]"}, "[3]": {"conditions": "at 25° C.; cited from earlier work"}, "LCC6/Her2 cells": {"test_system": "LCC6/Her2 cells", "assay": "MTS assay of cell activity, cells cultured within alginate gel beads", "format": "cell-based, human", "conditions": "48 h treatment with 800 nM doxorubicin", "protocol": "as §1\nFor LCC6/Her2 cells cultured within alginate gel beads 100, cell activity as measured using the standard MTS assay was 35%, while cell viability as measured using the Live/Dead stains was 83%, in both cases after 48 h treatment with 800 nM doxorubicin. […] Thus, the absolute number of surviving cells, in addition to the percentage of living or dead cells, may be an important parameter in drug screening. This can be obtained by processing the data from image-based high-throughput screening systems."}, "in vitro": {"assay": "in vitro", "format": "cell-based", "conditions": "human", "protocol": "as §1, §2, §3, §4, §5"}, "[4]": {"test_system": "LCC6/Her2 breast tumor cells", "assay": "Cell proliferation rate of tumor spheroids on-chip from confocal cell counts", "format": "cell-based, human", "conditions": "1600 nM Dox exposure, 2 days", "protocol": "as §1\nas §3, with “microscopy. The imaging system consisted of a fluorescent microscope (Nikon TE2000U) and a cooled, color CCD camera (Retiga).” for “microscopy.”\nThe survival rate was calculated as NG/(NG+NR). The proliferation rate is calculated as (N4−N1)/N1 before drug treatment, and as (N6−N4)/N4 after drug treatment, where Nx is the number of cells on the xth day. […]"}, "A549 human lung cells": {"test_system": "A549 human lung cells", "conditions": "cited from earlier work"}, "[5]": {"test_system": "EMT-6 mammary sarcoma cells", "conditions": "EMT-6 spheroids created in a spinner flask, different exposure doses; cited from earlier work"}},
  "data": [
    {"smiles": "O=c1[nH]cc(F)c(=O)[nH]1", "note": "[5-fluorouracil]", "values": [
      {"measurement": "inhibition rates in multicellular spheroids versus monolayers", "setting": "[1]", "value": "lower inhibition rates in multicellular spheroids than in monolayers"}
    ]},
    {"smiles": "CCCCCCCCCCCCCCCC", "note": "[Hexadecane, n-hexadecane]", "values": [
      {"measurement": "additional toxicity from droplet formation solvent (survival rate, bead versus microchannel)", "setting": "[2]", "value": "did not indicate any additional toxicity effects"},
      {"measurement": "solubility in the aqueous phase", "setting": "[3]", "value": "9.0×10^−8 g/100 g water"}
    ]},
    {"smiles": "COc1cccc2c1C(=O)c1c(O)c3c(c(O)c1C2=O)C[C@@](O)(C(=O)CO)C[C@@H]3O[C@H]1C[C@H](N)[C@H](O)[C@H](C)O1", "note": "[doxorubicin, Doxorubicin]", "values": [
      {"measurement": "cell activity as measured using the standard MTS assay", "setting": "LCC6/Her2 cells", "value": 35, "unit": "%"},
      {"measurement": "cytotoxicity at 48 h, 1600 nM", "setting": "in vitro", "value": 20, "unit": "%"},
      {"measurement": "viability at 48 h, 800 nM", "setting": "in vitro", "value": 83, "unit": "%"},
      {"measurement": "proliferation rate change (FIG. 10)", "setting": "[4]", "value": "marked proliferation decrease"},
      {"measurement": "multicellular resistance index, ratio [IC50, spheroid/IC50, monolayer]", "setting": "A549 human lung cells", "value": 35},
      {"measurement": "inhibition rates in multicellular spheroids versus monolayers", "setting": "[1]", "value": "lower inhibition rates in multicellular spheroids than in monolayers"},
      {"measurement": "resistance of spheroids versus monolayer cells", "setting": "[5]", "value": "higher resistance"}
    ]},
    {"smiles": "CO[C@@]12[C@H](COC(N)=O)C3=C(C(=O)C(C)=C(N)C3=O)N1C[C@@H]1N[C@@H]12", "note": "[mitomycin C]", "values": [
      {"measurement": "inhibition rates in multicellular spheroids versus monolayers", "setting": "[1]", "value": "lower inhibition rates in multicellular spheroids than in monolayers"}
    ]},
    {"smiles": "CC[C@]1(O)C[C@@H]2CN(CCc3c([nH]c4ccccc34)[C@@](C(=O)OC)(c3cc4c(cc3OC)N(C)[C@H]3[C@@](O)(C(=O)OC)[C@H](OC(C)=O)[C@]5(CC)C=CCN6CC[C@]43[C@@H]65)C2)C1", "note": "[vinblastine]", "values": [
      {"measurement": "multicellular resistance index, ratio [IC50, spheroid/IC50, monolayer]", "setting": "A549 human lung cells", "value": 6625}
    ]}
  ]
}
